Test results: US8163771B2, “11 β-HSD1 modulators” (Exelixis, Inc., priority 2008, dated 2012)
Blank lines part the entries; values can stand above or below the molecule they belong to.

Target: T1, recombinant human 11 β-HSD1 (Homo sapiens, UniProt P28845)
T1 construct: made in house; host or cells: E. coli
Assay: 11 β-HSD1 SPA Assay (Scintillation Proximity Assay)
Type: biochemical
Procedure, shortened: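 Scintillation proximity read-out of cortisol formed from 40 nM [3H]cortisone by purified recombinant human enzyme (30-100 nM, E. coli) with 1 mM NADPH, pH7.4, 2 hours at room temperature; beads with cortisol antibody and glycyrrhetinic acid stop the reaction, read next day. IC50 derived from inhibition normalised to background and maximal wells.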

T1 sequence (P28845 whole entry): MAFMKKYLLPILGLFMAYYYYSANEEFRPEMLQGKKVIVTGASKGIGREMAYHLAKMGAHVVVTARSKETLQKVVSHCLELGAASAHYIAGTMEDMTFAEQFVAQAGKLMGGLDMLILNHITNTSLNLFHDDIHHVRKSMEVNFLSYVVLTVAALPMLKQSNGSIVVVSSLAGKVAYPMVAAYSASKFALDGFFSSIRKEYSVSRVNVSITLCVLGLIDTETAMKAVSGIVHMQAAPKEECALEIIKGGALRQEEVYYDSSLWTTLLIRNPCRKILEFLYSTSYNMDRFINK

SMILES: CC(C)(Oc1cc(F)c(F)cc1F)C(=O)N[C@H]1C[C@H]2CC[C@@H](C1)N2c1ccc(S(C)(=O)=O)cn1 [Example 232, 2-methyl-N-{8-[5-(methylsulfonyl)pyridin-2-yl]-8-azabicyclo[3.2.1]oct-3-endo-yl}-2-[(2,4,5-trifluorophenyl)oxy]propanamide]
IC50: < 200 nM

SMILES: CC(C)(Oc1ccc(F)cc1)C(=O)N[C@H]1C[C@H]2CC[C@@H](C1)N2c1ccc(S(C)(=O)=O)cc1 [Example 233, 2-[(4-fluorophenyl)oxy]-2-methyl-N-{8-[4-(methylsulfonyl)phenyl]-8-azabicyclo[3.2.1]oct-3-endo-yl}propanamide]
IC50: < 2000 nM

SMILES: CC(C)(Oc1cc(F)c(F)cc1F)C(=O)N[C@H]1C[C@H]2CC[C@@H](C1)N2c1ccc(S(C)(=O)=O)cc1 [Example 234, 2-methyl-N-{8-[4-(methylsulfonyl)phenyl]-8-azabicyclo[3.2.1]oct-3-endo-yl}-2-[(2,4,5-trifluorophenyl)oxy]propanamide]
IC50: < 2000 nM

SMILES: CC(C)(Oc1ccc(F)c(Cl)c1Cl)C(=O)N[C@H]1C[C@H]2CC[C@@H](C1)N2c1ccc(S(C)(=O)=O)cc1 [Example 235, 2-[(2,3-dichloro-4-fluorophenyl)oxy]-2-methyl-N-{8-[4-(methylsulfonyl)phenyl]-8-azabicyclo[3.2.1]oct-3-endo-yl}propanamide]
IC50: < 200 nM

SMILES: CC(C)(Oc1cc(F)c(Cl)cc1Cl)C(=O)N[C@H]1C[C@H]2CC[C@@H](C1)N2c1ccc(S(C)(=O)=O)cn1 [Example 236, 2-[(2,4-dichloro-5-fluorophenyl)oxy]-2-methyl-N-{8-[5-(methylsulfonyl)pyridin-2-yl]-8-azabicyclo[3.2.1]oct-3-endo-yl}propanamide]
IC50: < 200 nM

SMILES: CC(C)(Oc1cc(F)c(Cl)cc1Cl)C(=O)N[C@H]1C[C@H]2CC[C@@H](C1)N2c1ccc(S(C)(=O)=O)cc1 [Example 237, 2-[(2,4-dichloro-5-fluorophenyl)oxy]-2-methyl-N-{8-[4-(methylsulfonyl)phenyl]-8-azabicyclo[3.2.1]oct-3-endo-yl}propanamide]
IC50: < 200 nM

SMILES: CC(C)(Oc1c(Cl)cc(F)cc1Cl)C(=O)N[C@H]1C[C@H]2CC[C@@H](C1)N2c1ccc(S(N)(=O)=O)cn1 [Example 238, N-{8-[5-(aminosulfonyl)pyridin-2-yl]-8-azabicyclo[3.2.1]oct-3-endo-yl}-2-[(2,6-dichloro-4-fluorophenyl)oxy]-2-methylpropanamide]
IC50: < 200 nM

SMILES: CC(C)(Oc1c(Cl)cc(F)cc1Cl)C(=O)N[C@H]1C[C@H]2CC[C@@H](C1)N2c1ccc(S(C)(=O)=O)cc1 [Example 239, 2-[(2,6-dichloro-4-fluorophenyl)oxy]-2-methyl-N-{8-[4-(methylsulfonyl)phenyl]-8-azabicyclo[3.2.1]oct-3-endo-yl}propanamide]
IC50: < 200 nM

SMILES: CC(C)(Oc1ccc(Cl)c(F)c1)C(=O)N[C@H]1C[C@H]2CC[C@@H](C1)N2c1ccc(S(C)(=O)=O)cn1 [Example 240, 2-[(4-chloro-3-fluorophenyl)oxy]-2-methyl-N-{8-[5-(methylsulfonyl)pyridin-2-yl]-8-azabicyclo[3.2.1]oct-3-endo-yl}propanamide]
IC50: < 200 nM

SMILES: CC(C)(Oc1ccc(Cl)c(F)c1)C(=O)N[C@H]1C[C@H]2CC[C@@H](C1)N2c1ccc(S(C)(=O)=O)cc1 [Example 241, 2-[(4-chloro-3-fluorophenyl)oxy]-2-methyl-N-{8-[4-(methylsulfonyl)phenyl]-8-azabicyclo[3.2.1]oct-3-endo-yl}propanamide]
IC50: < 2000 nM

SMILES: CC(C)(Oc1ccc(Cl)c(F)c1)C(=O)N[C@H]1C[C@H]2CC[C@@H](C1)N2c1ccc(S(N)(=O)=O)cn1 [Example 242, N-{8-[5-(aminosulfonyl)pyridin-2-yl]-8-azabicyclo[3.2.1]oct-3-endo-yl}-2-[(4-chloro-3-fluorophenyl)oxy]-2-methylpropanamide]
IC50: < 200 nM

SMILES: CC(C)(Oc1ccc(C(F)(F)F)cc1)C(=O)N[C@H]1C[C@H]2CC[C@@H](C1)N2c1ccc(S(C)(=O)=O)cn1 [Example 243, 2-methyl-N-{8-[5-(methylsulfonyl)pyridin-2-yl]-8-azabicyclo[3.2.1]oct-3-endo-yl}-2-{[4-(trifluoromethyl)phenyl]oxy}propanamide]
IC50: < 2000 nM

IC50: < 2000 nM
SMILES: CC(C)(Oc1ccc(C(F)(F)F)cc1)C(=O)N[C@H]1C[C@H]2CC[C@@H](C1)N2c1ccc(S(N)(=O)=O)cn1 [Example 244, N-{8-[5-(aminosulfonyl)pyridin-2-yl]-8-azabicyclo[3.2.1]oct-3-endo-yl}-2-methyl-2-{[4-(trifluoromethyl)phenyl]oxy}propanamide]

SMILES: CC(C)(Oc1ccc(C(F)(F)F)cc1)C(=O)N[C@H]1C[C@H]2CC[C@@H](C1)N2c1ccc(S(C)(=O)=O)cc1 [Example 245, 2-methyl-N-{8-[4-(methylsulfonyl)phenyl]-8-azabicyclo[3.2.1]oct-3-endo-yl}-2-{[4-(trifluoromethyl)phenyl]oxy}propanamide]
IC50: < 2000 nM

SMILES: CC(C)(Oc1ncc(C(F)(F)F)cc1Cl)C(=O)N[C@H]1C[C@H]2CC[C@@H](C1)N2c1ccc(S(N)(=O)=O)cn1 [Example 246, N-{8-[5-(aminosulfonyl)pyridin-2-yl]-8-azabicyclo[3.2.1]oct-3-endo-yl}-2-{[3-chloro-5-(trifluoromethyl)pyridin-2-yl]oxy}-2-methylpropanamide]
IC50: < 2000 nM

SMILES: CC(C)(Oc1ncc(Cl)cc1F)C(=O)N[C@H]1C[C@H]2CC[C@@H](C1)N2c1ccc(S(N)(=O)=O)cn1 [Example 247, N-{8-[5-(aminosulfonyl)pyridin-2-yl]-8-azabicyclo[3.2.1]oct-3-endo-yl}-2-[(5-chloro-3-fluoropyridin-2-yl)oxy]-2-methylpropanamide]
IC50: < 2000 nM

SMILES: CC(C)(Oc1ncc(C(F)(F)F)cc1Cl)C(=O)N[C@H]1C[C@H]2CC[C@@H](C1)N2c1ccc(S(C)(=O)=O)cn1 [Example 248, 2-{[3-chloro-5-(trifluoromethyl)pyridin-2-yl]oxy}-2-methyl-N-{8-[5-(methylsulfonyl)pyridin-2-yl]-8-azabicyclo[3.2.1]oct-3-endo-yl}propanamide]
IC50: < 2000 nM

SMILES: CC(C)(Oc1ncc(C(F)(F)F)cc1Cl)C(=O)N[C@H]1C[C@H]2CC[C@@H](C1)N2c1ccc(S(C)(=O)=O)cc1 [Example 249, 2-{[3-chloro-5-(trifluoromethyl)pyridin-2-yl]oxy}-2-methyl-N-{8-[4-(methylsulfonyl)phenyl]-8-azabicyclo[3.2.1]oct-3-endo-yl}propanamide]
IC50: < 2000 nM

SMILES: CC(C)(Oc1ccc(F)cc1C(F)(F)F)C(=O)N[C@H]1C[C@H]2CC[C@@H](C1)N2c1ccc(S(C)(=O)=O)cc1 [Example 250, 2-{[4-fluoro-2-(trifluoromethyl)phenyl]oxy}-2-methyl-N-{8-[4-(methylsulfonyl)phenyl]-8-azabicyclo[3.2.1]oct-3-endo-yl}propanamide]
IC50: < 200 nM

SMILES: CC(C)(Oc1c(Cl)cc(F)cc1C(F)(F)F)C(=O)N[C@H]1C[C@H]2CC[C@@H](C1)N2c1ccc(S(N)(=O)=O)cn1 [Example 251, N-{8-[5-(aminosulfonyl)pyridin-2-yl]-8-azabicyclo[3.2.1]oct-3-endo-yl}-2-{[2-chloro-4-fluoro-6-(trifluoromethyl)phenyl]oxy}-2-methylpropanamide]
IC50: < 200 nM
